From PMC7419010 (PLoS Pathogens, 2020)

Tests used:
Lsa-nAChR1 (α1α2β1β2) [1] = biological target: T1, Lsa-nAChR1 (α1α2β1β2) (Lepeophtheirus salmonis, UniProt A0A7S5PZ05+A0A7S5Q3W4+A0A7S5Q7H3+A0A7S5U9A3); test: cell-based; type: cell-based
Experimental: (§1) Capped cRNAs were synthesized (T7 mMessage mMachine kit, Ambion, Austin, TX, USA) from the linearized vectors containing the different subunits according to the manufacturer’s protocol. cRNA samples were stored at -80°C until use. Oocytes were ordered from Ecocyte (Germany). Oocytes were microinjected using a Roboinject automatic injection system (Multi Channel Systems, Reutlingen, Germany) with 15–25 nl of cRNA solution (30–300 ng/μl per subunit) and then incubated at 18°C in sterile filtered Barth solution containing: NaCl (88 mM), KCl (1 mM), NaHCO3 (2.4 mM), HEPES (10 mM, pH 7.5), MgSO4·7H2O (0.82 mM), Ca(NO3)2·4H2O (0.33 mM), CaCl2·6H2O (0.41 mM), at pH 7.4, and supplemented with 20 μg/ml of kanamycin, 100 U/ml benzylpenicillin and 100 μg/ml streptomycin. Recordings were made 3–5 days post-cRNA injection.
(§2) Oocytes were impaled with two electrodes filled with 3 M KCl, and their membrane potentials were maintained at -80 mV throughout the experiment. Currents evoked by ACh or drugs were recorded using an automated process equipped with standard two-electrode voltage-clamp configuration (HiClamp, MultiChannel Systems). The principle of this system differs from standard electrophysiology because, instead of applying the compound in the perfusion, the oocyte is moved into a well from a 96-well microtiter plate containing the desired solution. Data were captured at 100 Hz, filtered at 10 Hz, and analyzed using proprietary data acquisition and analysis software running under Matlab (Mathworks Inc., Natick, MA, USA). Additional analyses were performed in Excel (Microsoft, Redmond, WA, USA). […] Concentration-activation curves were fitted with the equation: Y=100/1+10^H(logEC50−X) (1) where Y is the normalized response, logEC50 is the logarithm of the concentration of agonist eliciting half-maximal current amplitude, X is the log of dose or concentration, and H is the slope factor or Hill slope. Individual curves were standardized to the initial ACh (100 μM) application amplitude and subsequently averaged. EC50 values were determined from the mean of at least 3 or more cells.
(§3) Dose-response curves were obtained by sequential applications for 10s of increasing concentrations of ACh or drugs to oocytes expressing Lsa-nAChR1 or Lsa-nAChR2. A total time of 90 s time was allowed between applications for the channel to recover from any desensitization. To test the antagonistic effect of DHbE (Fig 5) and for the screening protocol (Fig 6), cells that evoked a significant current with ACh were exposed to the test compounds at 10 μM respectively 1 μM using a pre-application of 45 s and co-application of 10 s with ACh (1 μM).

Lsa-nAChR2 (α3β1β2) [2] = biological target: T2, Lsa-nAChR2 (α3β1β2) (Lepeophtheirus salmonis, UniProt A0A7S5PZ03+A0A7S5PZ05+A0A7S5Q7H3); test: cell-based; type: cell-based
Experimental: as §1, §2, §3

[3] = system: Lsa-nAChR-α1 and Lsa-nAChR-α2 with Lsa-nAChR-β1 and APs (Lsa-nAChR-β2 removed); test: Two-electrode voltage-clamp, oocytes with Lsa-nAChR-α1, -α2, -β1 and APs (Lsa-nAChR-β2 removed); type: cell-based, Lepeophtheirus salmonis; conditions: Lsa-nAChR-β2 removed from injection mix
Text: (§4) To determine the subunit composition of the functional L. salmonis nAChR channel, we tried different possible combinations of the six nAChR subunit (α1, α2, α3, α7, β1 and β2) cRNAs along with the cRNAs from the three AP, injected into X. laevis oocytes, which is one of the most commonly used systems for functional expression of nAChRs. Three to five days after injection, the presence of a functional nAChR was investigated by the two-electrode voltage-clamp method. To determine the relative contribution of each gene for the functional expression of nAChR, we removed cRNAs from the injection mixture, either singularly or in combination (Fig 2). […]
(§5) Oocytes were impaled with two electrodes filled with 3 M KCl, and their membrane potentials were maintained at -80 mV throughout the experiment. Currents evoked by ACh or drugs were recorded using an automated process equipped with standard two-electrode voltage-clamp configuration (HiClamp, MultiChannel Systems). […] Data were captured at 100 Hz, filtered at 10 Hz, and analyzed using proprietary data acquisition and analysis software running under Matlab (Mathworks Inc., Natick, MA, USA). […] Plots of the peak inward currents as a function of the logarithm of the agonist concentration yield classical concentration-activation curves were readily fitted by single Hill equations. […]

[4] = system: six nAChR subunits (α1, α2, α3, α7, β1 and β2) and the three APs; test: Two-electrode voltage-clamp, oocytes co-injected with all six nAChR subunits and three ancillary proteins; type: cell-based, Lepeophtheirus salmonis; conditions: equimolar co-injection
Text: as §4, §5

[5] = system: hybrid Locusta migratoria/Rattus norvegicus nAChR; parameters: method as in earlier work; conditions: hybrid receptor in Xenopus oocytes; ref 25 (Bao et al.); cited from earlier work
Lsa-nAChR1 (α1α2β1β2) [6] = biological target: T1, Lsa-nAChR1 (α1α2β1β2); type: cell-based; conditions: co-applied at 10 μM, both ratios (10:1 and 1:10)
Lsa-nAChR2 (α3β1β2) [7] = biological target: T2, Lsa-nAChR2 (α3β1β2); type: cell-based; conditions: co-applied at 10 μM, both ratios (10:1 and 1:10)
[8] = oocytes exposed to acetylcholine

T1 sequence (A0A7S5PZ05 entry or part of it): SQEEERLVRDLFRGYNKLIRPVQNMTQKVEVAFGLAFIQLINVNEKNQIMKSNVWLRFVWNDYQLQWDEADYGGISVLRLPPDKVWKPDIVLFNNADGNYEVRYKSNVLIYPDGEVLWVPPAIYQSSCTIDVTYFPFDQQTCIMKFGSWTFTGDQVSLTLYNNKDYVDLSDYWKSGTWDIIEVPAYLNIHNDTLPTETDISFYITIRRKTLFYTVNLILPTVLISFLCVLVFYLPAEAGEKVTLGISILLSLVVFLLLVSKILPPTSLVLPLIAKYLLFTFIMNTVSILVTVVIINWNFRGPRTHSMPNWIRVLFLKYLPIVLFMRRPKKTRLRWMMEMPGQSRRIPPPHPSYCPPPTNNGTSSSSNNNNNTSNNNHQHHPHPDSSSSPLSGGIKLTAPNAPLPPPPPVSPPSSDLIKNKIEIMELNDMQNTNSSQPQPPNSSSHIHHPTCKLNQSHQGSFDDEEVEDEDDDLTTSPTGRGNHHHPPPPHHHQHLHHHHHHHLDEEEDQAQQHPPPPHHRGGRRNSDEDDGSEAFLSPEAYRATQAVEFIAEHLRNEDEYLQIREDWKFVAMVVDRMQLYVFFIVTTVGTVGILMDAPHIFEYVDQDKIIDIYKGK
T1 sequence (A0A7S5Q3W4 entry or part of it): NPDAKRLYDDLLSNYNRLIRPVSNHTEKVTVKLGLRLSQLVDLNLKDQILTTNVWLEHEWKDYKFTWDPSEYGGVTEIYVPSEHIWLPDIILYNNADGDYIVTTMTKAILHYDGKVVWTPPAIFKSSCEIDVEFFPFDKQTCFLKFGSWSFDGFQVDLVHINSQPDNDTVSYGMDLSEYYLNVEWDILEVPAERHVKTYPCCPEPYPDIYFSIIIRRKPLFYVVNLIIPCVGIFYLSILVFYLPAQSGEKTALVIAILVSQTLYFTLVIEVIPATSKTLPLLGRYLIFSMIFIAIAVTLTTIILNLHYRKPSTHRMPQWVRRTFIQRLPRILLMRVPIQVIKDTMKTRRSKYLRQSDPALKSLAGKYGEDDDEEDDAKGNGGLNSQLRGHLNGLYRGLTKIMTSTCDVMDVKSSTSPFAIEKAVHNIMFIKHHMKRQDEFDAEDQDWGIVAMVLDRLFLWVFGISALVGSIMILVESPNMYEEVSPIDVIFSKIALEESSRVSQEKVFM
T1 sequence (A0A7S5U9A3 entry or part of it): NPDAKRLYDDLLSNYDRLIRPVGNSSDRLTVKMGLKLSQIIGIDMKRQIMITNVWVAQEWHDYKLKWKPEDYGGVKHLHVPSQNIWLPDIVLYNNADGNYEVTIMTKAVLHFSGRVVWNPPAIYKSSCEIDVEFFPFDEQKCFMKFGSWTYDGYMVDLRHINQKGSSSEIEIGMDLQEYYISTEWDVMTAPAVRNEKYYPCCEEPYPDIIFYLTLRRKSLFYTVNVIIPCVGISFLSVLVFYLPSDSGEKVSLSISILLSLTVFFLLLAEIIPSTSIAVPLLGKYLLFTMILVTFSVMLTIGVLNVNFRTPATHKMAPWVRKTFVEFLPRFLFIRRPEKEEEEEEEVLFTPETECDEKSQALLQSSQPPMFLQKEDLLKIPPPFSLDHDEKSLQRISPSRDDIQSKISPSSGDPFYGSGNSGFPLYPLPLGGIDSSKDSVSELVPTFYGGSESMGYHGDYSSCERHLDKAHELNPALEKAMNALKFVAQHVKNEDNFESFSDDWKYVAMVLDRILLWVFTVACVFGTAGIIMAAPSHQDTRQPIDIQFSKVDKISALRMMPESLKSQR
T1 sequence (A0A7S5Q7H3 entry or part of it): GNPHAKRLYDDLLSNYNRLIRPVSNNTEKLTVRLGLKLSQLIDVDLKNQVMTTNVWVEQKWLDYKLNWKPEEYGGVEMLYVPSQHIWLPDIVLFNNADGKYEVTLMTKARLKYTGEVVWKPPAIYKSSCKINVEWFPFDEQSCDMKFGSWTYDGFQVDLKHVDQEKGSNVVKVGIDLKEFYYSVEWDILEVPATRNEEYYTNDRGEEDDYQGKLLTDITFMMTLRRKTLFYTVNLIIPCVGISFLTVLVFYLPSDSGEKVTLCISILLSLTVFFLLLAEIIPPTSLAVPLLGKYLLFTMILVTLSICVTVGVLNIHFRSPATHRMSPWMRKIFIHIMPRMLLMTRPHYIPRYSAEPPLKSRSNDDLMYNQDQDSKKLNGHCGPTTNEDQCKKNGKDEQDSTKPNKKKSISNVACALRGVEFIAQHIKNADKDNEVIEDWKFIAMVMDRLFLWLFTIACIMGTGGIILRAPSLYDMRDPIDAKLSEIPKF

| SMILES | current (median) with 100 μM ACh (Lsa-nAChR1 (α1α2β1β2) [1]; Lsa-nAChR-α1 and -α2 with both β subunits and APs) [μA] | type of effect on the receptor (agonist / partial-agonist / no effect) (Lsa-nAChR1 (α1α2β1β2) [1]; dose-response, 1:1 (α:β) ratio) | averaged maximum response (Lsa-nAChR1 (α1α2β1β2) [1]; [8]) [μA] | Mean Hill Slope ± SD (Lsa-nAChR1 (α1α2β1β2) [1]; ratio α/β 1:10) | Mean max current (μA) (Lsa-nAChR1 (α1α2β1β2) [1]; ratio α/β 1:10) | Mean Hill Slope ± SD (Lsa-nAChR1 (α1α2β1β2) [1]; ratio α/β 10:1) | Mean max current (μA) (Lsa-nAChR1 (α1α2β1β2) [1]; ratio α/β 10:1) | Emax (Lsa-nAChR1 (α1α2β1β2) [1]; read-out: Max peak (% Ach)) [%] | type of effect on the receptor (agonist / partial-agonist / super-agonist / no effect) (Lsa-nAChR2 (α3β1β2) [2]; dose-response, 1:1 (α:β) ratio) | Max peak (% Ach) (Lsa-nAChR2 (α3β1β2) [2]; maximal peak current compared to ACh 100 μM, 1:1 (α:β) ratio) [%] | averaged maximum response (Lsa-nAChR2 (α3β1β2) [2]; [8]) [μA] | Mean Hill Slope ± SD (Lsa-nAChR2 (α3β1β2) [2]; ratio α/β 1:10) | Mean max current (μA) (Lsa-nAChR2 (α3β1β2) [2]; ratio α/β 1:10) | Mean Hill Slope ± SD (Lsa-nAChR2 (α3β1β2) [2]; ratio α/β 10:1) | Mean max current (μA) (Lsa-nAChR2 (α3β1β2) [2]; ratio α/β 10:1) | current (median) with 100 μM ACh [3] [μA] | current (median) with 100 μM ACh [4] [μA] | maximum response to acetylcholine [5] [μA] | inhibition of the ACh-triggered (10 μM) response (Lsa-nAChR1 (α1α2β1β2) [6]) | inhibition of the ACh-triggered (10 μM) response (Lsa-nAChR2 (α3β1β2) [7]) |
| --- | --- | --- | --- | --- | --- | --- | --- | --- | --- | --- | --- | --- | --- | --- | --- | --- | --- | --- | --- | --- |
| CC(=O)OCC[N+](C)(C)C [Acetylcholine] | 4.50 | agonist | > 5 | 1.44 ± 0.52 | 8.35 | 1.46 ± 0.37 | 4.85 | 100 | agonist | 100 | > 5 | 1.25 ± 0.23 | 3.17 | 1.30 ± 0.22 | 2.52 | 0.17 | 17.00 | 0.24 |  |  |
| CO[C@H]1CC=C2CCN3CCC4=C(CC(=O)OC4)[C@]23C1 [DHbE, Dihydro-β-erythroidine] |  |  |  |  |  |  |  |  |  |  |  |  |  |  |  |  |  |  | completely inhibit | completely inhibit |
